US20040254182A1, “Enhanced propertied pharmaceuticals” (priority 2000, published 2004)

Legend:
[1] = tested on: Staphylococcus aureus 6538; assay: High resolution minimum inhibitory concentration (HRMIC) test vs S. aureus 6538; assay type: cell-based; conditions: M9GY medium, 96-well microtiter plate, 10^6 CFU/mL, 30° C. for 24 h; first well with no growth
Experimental: (§1) Several compounds of this invention were tested for biological activity in vitro against Escherichia coli 8739 and Staphylococcus aureus 6538 described below. The following test procedures were employed.
(§2) MIC Determination: The lowest concentration of test compound required to inhibit Escherichia coli 8739 and Staphylococcus aureus 6538 was determined by a high resolution minimum inhibitory concentration (HRMIC) test. Varying amounts of the test compounds were added to minimal salts glucose medium (Maniatis, T., Fritsch, E. F., Sambrook, J. 1982 Molecular Cloning, page 68) supplemented with 0.1% yeast extract (M9GY) in a 96-well microtiter plate. […] serial dilutions were performed on a Biomek 2000 Workstation to obtain a range of closely spaced concentrations of test compound as shown in FIG. 1. A cell suspension of inoculum, adjusted to provide 10^6 CFU/mL in each well, was added to the microtiter plate. Microtiter plates were incubated at 30° C. for 24 h and then were checked for the presence or absence of microbial growth in each well.

[2] = tested on: Escherichia coli 8739; assay: High resolution minimum inhibitory concentration (HRMIC) test vs E. coli 8739; assay type: cell-based; conditions: M9GY medium, 96-well microtiter plate, 10^6 CFU/mL, 30° C. for 24 h; first well with no growth
Experimental: as §1, §2

MIC vs S. aureus 6538 Gram-positive [1] [ppm AI]	melting point [°C]	MIC vs E. coli 8739 Gram-negative [2] [ppm AI]	SMILES
0.7	88 to 96.5	>1000	CCn1cc(C(=O)O)c(=O)c2cc(F)c(N3CCN(C(=O)OC(OC(=O)C(C)c4ccc(CC(C)C)cc4)C(=O)OC(C)C)CC3)cc21 (centres unmarked) [Compound 8-4, 7-(4-[(2-[4-(2-Methylpropyl)phenyl]propanoyloxy)(isopropoxycarbonyl)methoxy-carbonyl]-1-piperazinyl)-1-ethyl-6-fluoro-1,4-dihydro-4-oxo-3-quinolinecarboxylic acid]
0.9		0.2	CCn1cc(C(=O)O)c(=O)c2cc(F)c(N3CCNCC3)cc21 [Norfloxacin, reference compound]

Continued, compound first:

SMILES	MIC vs S. aureus 6538 Gram-positive [1] [ppm AI]	melting point [°C]	MIC vs E. coli 8739 Gram-negative [2] [ppm AI]
CCn1cc(C(=O)O)c(=O)c2cc(F)c(N3CCN(C(=O)OC(OC(=O)c4ccccc4)C(=O)OC(C)C)CC3)cc21 (centres unmarked) [Compound 8-2, 7-(4-[(Isopropoxycarbonyl)(benzoyloxy)methoxycarbonyl]-1-piperazinyl)-1-ethyl-6-fluoro-1,4-dihydro-4-oxo-3-quinolinecarboxylic acid]	0.45	135 to 143	3
CCCCOC(=O)C(OC(=O)C(C)C)OC(=O)N1CCN(c2cc3c(cc2F)c(=O)c(C(=O)O)cn3CC)CC1 (centres unmarked) [Compound 8-1, 7-(4-[(Butoxycarbonyl)(2-methylpropanoyloxy)methoxycarbonyl]-1-piperazinyl)-1-ethyl-6-fluoro-1,4-dihydro-4-oxo-3-quinolinecarboxylic acid]	0.06	151.5 to 160	2.5
CCCCCCCCCCCC(=O)OC(OC(=O)N1CCN(c2cc3c(cc2F)c(=O)c(C(=O)O)cn3CC)CC1)C(=O)OC(C)C (centres unmarked) [Compound 8-3, 7-(4-[(Isopropoxycarbonyl)(dodecanoyloxy)methoxycarbonyl]-1-piperazinyl)-1-ethyl-6-fluoro-1,4-dihydro-4-oxo-3-quinolinecarboxylic acid]	4.5	105.5 to 109.2	40
